# Molecular target: T1, BCDIN3D (Homo sapiens, UniProt Q7Z5W3)
# T1 sequence (Q7Z5W3 1-292): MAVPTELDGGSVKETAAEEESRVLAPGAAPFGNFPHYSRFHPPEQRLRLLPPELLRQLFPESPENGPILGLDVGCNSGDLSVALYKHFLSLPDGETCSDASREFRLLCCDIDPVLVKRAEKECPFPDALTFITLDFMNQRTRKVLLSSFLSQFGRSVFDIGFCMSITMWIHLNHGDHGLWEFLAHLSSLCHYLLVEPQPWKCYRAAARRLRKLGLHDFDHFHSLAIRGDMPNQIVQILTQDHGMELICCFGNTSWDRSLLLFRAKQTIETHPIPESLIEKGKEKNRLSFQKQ
# Assay: BCDIN3D IC50 RFMS (RapidFire) assay with mini-helix
# Format: biochemical
# Details: mini-helix 0.2 μM and SAM 6 μM as substrates, 25 nM enzyme, 1 hr at 37° C.
# Method: The following General Methods details the assay conditions for the Biological assays.
# BCDIN3D IC50 RFMS Assay with Mini-Helix
# The enzymatic assay was performed in a 384-well polypropylene plate in assay buffer with 25 mM Tris pH 8.0, 10 mM DTT, 1 mM EDTA, 0.03% BSA in a final assay volume of 20 μL. The enzyme with a final concentration of 25 nM was pre-incubated with the respective compound at 1% DMSO final assay concentration over 10 min at room temperature. The reaction was initiated by addition of 0.2 μM final assay concentration of mini-helix and 6 μM final concentration of SAM as substrates. After a 1 hr incubation at 37° C., the reaction was terminated with 40 μL of stop solution of 7.5% trichloroactetic acid in water containing 112.5 nM D4-SAH and 30 nM ^13C10-SAH used as internal standards. The SAH product concentrations as well as both internal standards were analyzed by a RapidFire High Throughput Mass Spectrometry System (Agilent Technologies, Santa Clara, Calif.) using an AP14000 triple quadrupole mass spectrometer (AB Sciex Framingham, Mass.).
row,SMILES,IC50 [µM]
1,"Cn1ncc2c(NCc3ccc4occc4c3)nc(NCCN)nc21 [Compound 1.10, N6-(2-aminoethyl)-N4-[(1-benzofuran-5-yl)methyl]-1-methyl-1H-pyrazolo[3,4-d]pyrimidine-4,6-diamine]",5.49
2,"Cn1ncc2c(NCC3CCN(C(=O)c4ccccc4)CC3)nc(NCCN)nc21 [Compound 1.42, N6-(2-aminoethyl)-N4-[(1-benzoylpiperidin-4-yl)methyl]-1-methyl-1H-pyrazolo[3,4-d]pyrimidine-4,6-diamine]",5.76
3,"Cn1ncc2c(NCc3ccc4nc[nH]c4c3)nc(NCCN)nc21 [Compound 1.13, N6-(2-aminoethyl)-N4-[(1H-1,3-benzodiazol-5-yl)methyl]-1-methyl-1H-pyrazolo[3,4-d]pyrimidine-4,6-diamine]",7.8
4,"Cn1ncc2c(NCc3ccc(Cl)cc3F)nc(NCCN)nc21 [Compound 1.18, N6-(2-aminoethyl)-N4-[(4-chloro-2-fluorophenyl)methyl]-1-methyl-1H-pyrazolo[3,4-d]pyrimidine-4,6-diamine]",4.75
5,"Cn1ncc2c(NCCc3ccc4c(c3)OCO4)nc(NCCN)nc21 [Compound 1.09, N6-(2-aminoethyl)-N4-[2-(2H-1,3-benzodioxol-5-yl)ethyl]-1-methyl-1H-pyrazolo[3,4-d]pyrimidine-4,6-diamine]",4.07
6,"COc1cc(Cl)cc(CNc2nc(NCCN)nc3c2cnn3C)c1 [Compound 1.20, N6-(2-aminoethyl)-N4-[(3-chloro-5-methoxyphenyl)methyl]-1-methyl-1H-pyrazolo[3,4-d]pyrimidine-4,6-diamine]",3.53
7,"COc1ccc(CNc2nc(NCCN)nc3c2cnn3C)cc1 [Compound 1.39, N6-(2-aminoethyl)-N4-[(4-methoxyphenyl)methyl]-1-methyl-1H-pyrazolo[3,4-d]pyrimidine-4,6-diamine]",6.91
8,"COc1ccc(C(=O)N2CCC(CNc3nc(NCCN)nc4c3cnn4C)CC2)cc1Cl [Compound 1.37, N6-(2-aminoethyl)-N4-{[1-(3-chloro-4-methoxybenzoyl)piperidin-4-yl]methyl}-1-methyl-1H-pyrazolo[3,4-d]pyrimidine-4,6-diamine]",7.62
9,"COc1ccc(CNc2nc(NCCN)nc3c2c(C)nn3C)cc1Cl [Compound 1.29, N6-(2-aminoethyl)-N4-[(3-chloro-4-methoxyphenyl)methyl]-1,3-dimethyl-1H-pyrazolo[3,4-d]pyrimidine-4,6-diamine]",2.9
10,"Cn1ncc2c(NCc3ccc(F)cc3F)nc(NCCN)nc21 [Compound 1.19, N6-(2-aminoethyl)-N4-[(2,4-difluorophenyl)methyl]-1-methyl-1H-pyrazolo[3,4-d]pyrimidine-4,6-diamine]",6.38
11,"Cn1ncc2c(NCC3CCN(Cc4ccccc4)CC3)nc(NCCN)nc21 [Compound 1.41, N6-(2-aminoethyl)-N4-[(1-benzylpiperidin-4-yl)methyl]-1-methyl-1H-pyrazolo[3,4-d]pyrimidine-4,6-diamine]",21.1
12,"Cn1ncc2c(NCC3CCN(S(=O)(=O)c4ccccc4)CC3)nc(NCCN)nc21 [Compound 1.12, N6-(2-aminoethyl)-N4-{[1-(benzenesulfonyl)piperidin-4-yl]methyl}-1-methyl-1H-pyrazolo[3,4-d]pyrimidine-4,6-diamine]",9.52
13,"Cn1ncc2c(Nc3cccc(C(F)(F)F)c3)nc(NCCN)nc21 [Compound 1.02, N6-(2-aminoethyl)-1-methyl-N4-[3-(trifluoromethyl)phenyl]-1H-pyrazolo[3,4-d]pyrimidine-4,6-diamine]",4.27
14,"COc1ccc(CCNc2nc(NCCN)nc3c2cnn3C)cc1Cl [Compound 1.08, N6-(2-aminoethyl)-N4-[2-(3-chloro-4-methoxyphenyl)ethyl]-1-methyl-1H-pyrazolo[3,4-d]pyrimidine-4,6-diamine]",2.8
15,"Cn1ncc2c(NCC3CCN(C(=O)OC(C)(C)C)CC3)nc(NCCN)nc21 [Compound 1.40, tert-butyl 4-[({6-[(2-aminoethyl)amino]-1-methyl-1H-pyrazolo[3,4-d]pyrimidin-4-yl}amino)methyl]piperidine-1-carboxylate]",6.19
16,"Cn1ncc2c(NCc3ccc(F)c(Cl)c3)nc(NCCN)nc21 [Compound 1.17, N6-(2-aminoethyl)-N4-[(3-chloro-4-fluorophenyl)methyl]-1-methyl-1H-pyrazolo[3,4-d]pyrimidine-4,6-diamine]",6.9
17,"COc1ccc(CCNc2nc(NCCN)nc3c2cnn3C)cn1 [Compound 1.07, N6-(2-aminoethyl)-N4-[2-(6-methoxypyridin-3-yl)ethyl]-1-methyl-1H-pyrazolo[3,4-d]pyrimidine-4,6-diamine]",4.38

# The next lines start with the values.
row,IC50 [µM],SMILES
1,0.00462,"Cn1ncc2c(NC(C)(C)C)nc(NC[C@@H](N)c3ccc(F)c(F)c3)nc21 [Compound 7.21, N6-[(2S)-2-amino-2-(3,4-difluorophenyl)ethyl]-N4-tert-butyl-1-methyl-1H-pyrazolo[3,4-d]pyrimidine-4,6-diamine]"
2,5.17,"Cn1ncc2c(NC(C)(C)C)nc(NC[C@@H](N)C3CCCCC3)nc21 [Compound 7.23, N6-[(2S)-2-amino-2-cyclohexylethyl]-N4-tert-butyl-1-methyl-1H-pyrazolo[3,4-d]pyrimidine-4,6-diamine]"
3,0.069,"[2H]C([2H])([2H])n1ncc2c(NC(C)(C)C)nc(NCC(N)c3ccccc3F)nc21 (stereo in doubt) [Compound 7.16, N6-[(2R)-2-amino-2-(2-fluorophenyl)ethyl]-N4-tert-butyl-1-(trideuteriomethyl)pyrazolo[3,4-d]pyrimidine-4,6-diamine]"
4,0.8,"Cn1ncc2c(NC(C)(C)C)nc(NC[C@H](N)C3CCCCC3)nc21 [Compound 7.22, N6-[(2R)-2-amino-2-cyclohexylethyl]-N4-tert-butyl-1-methyl-1H-pyrazolo[3,4-d]pyrimidine-4,6-diamine]"
5,0.8,"Cn1ncc2c(NC(C)(C)C)nc(NC[C@H](N)c3ccc(F)c(F)c3)nc21 [Compound 7.20, N6-[(2R)-2-amino-2-(3,4-difluorophenyl)ethyl]-N4-tert-butyl-1-methyl-1H-pyrazolo[3,4-d]pyrimidine-4,6-diamine]"
6,8.58,"Cc1ccc(CNc2nc(N[C@@H]3CCCC[C@H]3N)nc3c2cnn3C)cc1Cl [Compound 7.03, 6-N-[(1R,2R)-2-aminocyclohexyl]-4-N-[(3-chloro-4-methylphenyl)methyl]-1-methylpyrazolo[3,4-d]pyrimidine-4,6-diamine]"

# Same assay, conditions: mini-helix substrate 0.2 μM, SAM 6 μM, 25 nM enzyme
row,IC50 [µM],SMILES
1,0.37,"Cn1ncc2c(NC(C)(C)C)nc(NCC(N)c3ccc(F)cc3)nc21 (stereo not shown) [Compound 5.30, N6-[2-amino-2-(4-fluorophenyl)ethyl]-N4-tert-butyl-1-methyl-1H-pyrazolo[3,4-d]pyrimidine-4,6-diamine]"
2,0.35,"Cn1ncc2c(NC(C)(C)C)nc(NCC(N)c3ccc(F)c(F)c3)nc21 (stereo not shown) [Compound 5.31, N6-[2-amino-2-(3,4-difluorophenyl)ethyl]-N4-tert-butyl-1-methyl-pyrazlo[3,4-d]pyrimidine-4,6-diamine]"
3,1.3,"Cn1ncc2c(NC(C)(C)CCO)nc(NC[C@H](N)c3ccccc3)nc21 [Compound 4.70, 3-[[6-[[(2R)-2-amino-2-phenyl-ethyl]amino]-1-methyl-pyrazolo[3,4-d]pyrimidin-4-yl]amino]-3-methyl-butan-1-ol]"
4,5.71,"Cc1ccc(CNc2nc(NC[C@H](C)N)nc3c2cnn3C)cc1Cl [Compound 3.03, 6-N-[(2S)-2-aminopropyl]-4-N-[(3-chloro-4-methylphenyl)methyl]-1-methylpyrazolo[3,4-d]pyrimidine-4,6-diamine]"
5,1.71,"Cn1ncc2c(NC34CC(C3)C4)nc(NCC3(N)CC3)nc21 [Compound 2.38, 6-N-[(1-aminocyclopropyl)methyl]-4-N-(3-bicyclo[1.1.1]pentanyl)-1-methylpyrazolo[3,4-d]pyrimidine-4,6-diamine]"
6,8.01,"[2H]C([2H])([2H])Nc1nc(NCC(N)c2ccccc2)nc2c1cnn2C (stereo not shown) [Compound 4.37, 6-N-(2-amino-2-phenylethyl)-1-methyl-4-N-(trideuteriomethyl)pyrazolo[3,4-d]pyrimidine-4,6-diamine]"
7,9.57,"Cc1ccc(CNc2nc(NC[C@H]3CCCN3)nc3c2cnn3C)cc1Cl [Compound 3.17, 4-N-[(3-chloro-4-methylphenyl)methyl]-1-methyl-6-N-[[(2R)-pyrrolidin-2-yl]methyl]pyrazolo[3,4-d]pyrimidine-4,6-diamine]"
8,6.56,"Cc1ccc(CNc2nc(NC(C)CN)nc3c2cnn3C)cc1Cl (stereo not shown) [Compound 3.02, 6-N-(1-aminopropan-2-yl)-4-N-[(3-chloro-4-methylphenyl)methyl]-1-methylpyrazolo[3,4-d]pyrimidine-4,6-diamine]"
